Assay results as given in US20200188361A1, “USE OF MITOCHONDRIAL ACTIVITY INHIBITORS FOR THE TREATMENT OF POOR PROGNOSIS ACUTE MYELOID LEUKEMIA” (UNIVERSITE DE MONTREAL, priority 2016, published 2020).

How the values were obtained:
[1] = system: HOX-high AML patient cells; assay: Primary chemical screen of 60 compounds, cell dose-response viability assay (CellTiterGlo, 6 days); assay type: cell-based, human
Experimental: (§1) frozen AML mono-nucleated cells were thawed at 37° C. in Iscove's modified Dulbecco's medium (IMDM) containing 20% FBS and DNase I (100 μg/mL).
(§2) All powders were dissolved in DMSO and diluted in culture medium immediately before use. Final DMSO concentration in all conditions was 0.1%. The 60 compounds were purchased from various suppliers including Santa Cruz, Selleckchem, Calbiochem, AdooQ Bioscience, Cayman chemical and Synkinase.
(§3) Patient cells were seeded in 384-well plates at a density of 5,000 cells in 50 μL per well. In the initial screen, compounds were added to seeded cells in serial dilutions (10 dilutions, 1:3, starting from 10 μM or 20 μM), in duplicates. Cells treated with 0.1% DMSO without additional compound were used as negative controls. Viable cell counts per well were evaluated after 6 days of culture using the CellTiterGlo® assay (Promega®) according to the manufacturer's instruction.
(§4) Using high expression of HOXA9 and HOXA10 as a surrogate for the detection of HOX-network-high patient samples, the survival of HOX-high versus HOX-med/low specimens contacted with 60 inhibitors targeting receptor tyrosine kinases (RTK), members of the RAS and PI3K pathways, was assessed (FIG. 2A, Table 4).

[2] = system: HOX-med/low AML patient cells; assay: as above; assay type: cell-based, human; details: Homo sapiens, 144 h; primary screen; mean over HOX-med/low patient specimens; 6 days culture; top concentration 10 μM or 20 μM; read-out: MEAN EC50 HOX-med/low
Experimental: as §1, §2, §3, §4

[3] = system: Normal primitive CD34-positive cord blood cells; assay: cells; details: Homo sapiens, read-out: EC50 in normal primitive CD34-positive cord blood cells
Experimental: as §3, with “instruction. The percent of inhibition was calculated as follows: 100−(100×(mean luminescence(compound)/mean luminescence(DMSO)); where mean-luminescence(compound) corresponds to the average of luminescent signals obtained for the compound-treated cells, and mean-luminescence(DMSO) corresponds to the average of luminescent signals obtained for the control DMSO-treated cells.” for “instruction.”

OCI-AML3 cells [4] = assay: Dose-response curves in AML cell line (6-day culture assay in 384-well plates); assay type: cell-based; details: FIG. 4E
Experimental: (§5) FIGS. 5A-5J show the results on experiments assessing the mode of action of Mubritinib for mediating tumor cell death. FIG. 5A: OCI-AML3 leukemic cells were either pre-incubated for 4 hours with 6 mM N-acetyl-cysteine (NAC), a reactive oxygen species (ROS) scavenger, or with vehicle (water) before being treated with 100 nM Mubritinib for 24 h or vehicle (DMSO). […] FIGS. 5C and 5D show the levels of reduced and oxidized levels of glutathione, respectively, in OCI-AML3 treated or not with Mubritinib, as detected by liquid chromatography-mass spectrometry (LC/MS). […] FIG. 5G is a graph depicting dose-response curves upon Mubritinib treatment (6-day culture assay in 384-well plates) of OCI-AML3 and OCI-AML5 cell lines. FIGS. 5H-J are graphs depicting dose-response curves following treatment of OCI-AML3 and OCI-AML5 cell lines with other ETC inhibitors, namely Oligomycin (inhibitor of complex V, FIG. 5H), Rotenone (inhibitor of complex I, FIG. 5I) and Deguelin (inhibitor of complex I, FIG. 5J).
OCI-AML3 cells were maintained in alpha-MEM, 20% FBS whereas breat tumor BT474 cells were maintained in DMEM 10% FBS.
as §3, with “instruction. The percent of inhibition was calculated as follows: 100−(100×(mean luminescence(compound)/mean luminescence(DMSO)); where mean-luminescence(compound) corresponds to the average of luminescent signals obtained for the compound-treated cells, and mean-luminescence(DMSO) corresponds to the average of luminescent signals obtained for the control DMSO-treated cells.” for “instruction.”

OCI-AML5 cells = details: FIG. 5G, 6-day culture
Experimental: as §5, with “FIGS. 5H-J are graphs depicting dose-response curves following treatment of OCI-AML3 and OCI-AML5 cell lines with other ETC inhibitors, namely Oligomycin (inhibitor of complex V, FIG. 5H), Rotenone (inhibitor of complex I, FIG. 5I) and Deguelin (inhibitor of complex I, FIG. 5J).” left out
Patient cells were seeded in 384-well plates at a density of 5,000 cells in 50 μL per well. […] Viable cell counts per well were evaluated after 6 days of culture using the CellTiterGlo® assay (Promega®) according to the manufacturer's instruction. The percent of inhibition was calculated as follows: 100−(100×(mean luminescence(compound)/mean luminescence(DMSO)); where mean-luminescence(compound) corresponds to the average of luminescent signals obtained for the compound-treated cells, and mean-luminescence(DMSO) corresponds to the average of luminescent signals obtained for the control DMSO-treated cells.

OCI-AML3 cells [5] = system: OCI-AML3 cells
Experimental: LC/MS Metabolite Measurements (Citric Acid Cycle Intermediates and Glutathione) LC/MS metabolite measurements were carried out at the McGill Metabolomics platform. Authentic metabolite standards were purchased from Sigma-Aldrich Co., while the following LC/MS grade solvents and additives were purchased from Fisher: ammonium acetate, formic acid, water, methanol, and acetonitrile. OCI-AML3 cells (5 million cells, quadruplicates, treated with either DMSO or Mubritinib 500 nM for 20 h) were washed twice with ice-cold 150 mM ammonium formate pH 7.2. Metabolites were then extracted using 380 μl of LC/MS grade 50% methanol/50% water mixture and 220 μl of cold acetonitrile. Samples were then homogenized by 1.4 mm ceramic bead beating 2 min at 30 Hz (TissueLyser, Qiagen). A volume of 300 μl of ice-cold water and 600 μl of ice-cold methylene chloride were added to the lysates. Samples were vortexed and allowed to rest on ice for 10 min for phase separation followed by centrifugation at 4,000 rpm for 5 min. The upper aqueous layer was transferred to a fresh pre-chilled tube. Samples were eventually dried by vacuum centrifugation operating at −4° C. (Labconco) and stored at −80° C. until ready for LC-MS/MS data collection. For LC-MS/MS analysis, specimens were first re-suspended in 50 μl of water and clarified by centrifugation for 15 min at 15,000 rpm at 1° C. Samples were maintained at 4° C. for the duration of the LC-MS/MS analysis in the autosampler.

[6] = target: human epidermal growth factor receptor 2 (ERBB2/HER2) (Homo sapiens, UniProt P04626); details: described in Nagasawa et al.; cited from earlier work
[7] = 500 nM, 24 h, relative to DMSO control

Sequence of human epidermal growth factor receptor 2 (ERBB2/HER2) (P04626 23-1255): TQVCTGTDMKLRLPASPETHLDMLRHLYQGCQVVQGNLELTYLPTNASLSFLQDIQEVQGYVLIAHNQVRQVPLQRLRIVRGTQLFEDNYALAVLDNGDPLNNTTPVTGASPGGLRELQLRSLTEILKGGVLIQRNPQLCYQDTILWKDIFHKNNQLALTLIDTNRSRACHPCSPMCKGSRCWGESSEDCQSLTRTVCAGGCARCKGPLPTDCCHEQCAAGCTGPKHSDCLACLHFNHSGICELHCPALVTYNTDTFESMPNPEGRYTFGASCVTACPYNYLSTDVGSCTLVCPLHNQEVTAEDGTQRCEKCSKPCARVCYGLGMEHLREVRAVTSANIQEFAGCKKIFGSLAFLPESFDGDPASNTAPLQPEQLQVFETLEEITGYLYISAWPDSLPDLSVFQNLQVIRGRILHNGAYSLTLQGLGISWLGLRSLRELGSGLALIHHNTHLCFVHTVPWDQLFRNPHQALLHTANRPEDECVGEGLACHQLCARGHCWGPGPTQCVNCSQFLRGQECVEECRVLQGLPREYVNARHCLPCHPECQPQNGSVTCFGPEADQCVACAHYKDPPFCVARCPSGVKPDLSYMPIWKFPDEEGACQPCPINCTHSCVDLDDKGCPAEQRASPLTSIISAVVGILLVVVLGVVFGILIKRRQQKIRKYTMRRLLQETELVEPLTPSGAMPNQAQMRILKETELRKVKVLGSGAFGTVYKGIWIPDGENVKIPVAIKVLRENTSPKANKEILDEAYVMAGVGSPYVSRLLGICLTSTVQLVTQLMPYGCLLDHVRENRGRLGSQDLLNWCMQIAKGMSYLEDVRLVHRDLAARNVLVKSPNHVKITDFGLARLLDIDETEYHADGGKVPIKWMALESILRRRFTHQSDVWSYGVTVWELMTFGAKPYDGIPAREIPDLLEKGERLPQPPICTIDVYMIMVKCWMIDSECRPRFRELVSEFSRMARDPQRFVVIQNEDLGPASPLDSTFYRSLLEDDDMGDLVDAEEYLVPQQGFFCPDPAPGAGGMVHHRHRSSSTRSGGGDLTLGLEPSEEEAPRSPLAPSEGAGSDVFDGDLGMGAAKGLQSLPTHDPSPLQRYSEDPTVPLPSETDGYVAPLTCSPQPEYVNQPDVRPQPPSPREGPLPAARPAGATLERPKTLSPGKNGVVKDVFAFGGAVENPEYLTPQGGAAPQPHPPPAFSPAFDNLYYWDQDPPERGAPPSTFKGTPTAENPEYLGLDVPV

Q: What does the source list for FC(F)(F)c1ccc(/C=C/c2nc(COc3ccc(CCCCn4ccnn4)cc3)co2)cc1 [Mubritinib, 1-(4-{4-[(2-{(E)-2-[4-(trifluoromethyl)phenyl]ethenyl}-1,3-oxazol-4-yl)methoxy]phenyl}butyl)-1H-1,2,3-triazole]?
A: EC50 ([1]; Homo sapiens, 144 h, primary screen, mean over HOX-high patient specimens, 6 days culture, top concentration 10 μM or 20 μM, read-out: MEAN EC50 HOX-high): 315 nM; difference in sensitivity of HOX-high versus HOX-med/low patient cells ([1]; primary screen (FIG. 2B)): significantly more sensitive; FOLD CHANGE High/Med-low ([1]; ratio of mean EC50 HOX-high to mean EC50 HOX-med/low): 0.2; EC50 [2]: 1380 nM; EC50 [3]: > 375 nM; sensitivity of OCI-AML3 cells (dose response curves) (OCI-AML3 cells [4]): sensitive; sensitivity of OCI-AML5 cells to compound-induced cell death (OCI-AML5 cells): resistant; levels of oxidized glutathione (OCI-AML3 cells [5]; [7]): increased; levels of reduced glutathione (OCI-AML3 cells [5]; [7]): decreased; level of citrate (OCI-AML3 cells [5]; OCI-AML3, Mubritinib 500 nM for 20 h vs DMSO (FIG. 6A)): reduces the levels; level of alpha-ketoglutarate (OCI-AML3 cells [5]; OCI-AML3, Mubritinib 500 nM for 20 h vs DMSO (FIG. 6B)): reduces the levels; level of succinate (OCI-AML3 cells [5]; OCI-AML3, Mubritinib 500 nM for 20 h vs DMSO (FIG. 6C)): reduces the levels; level of fumarate (OCI-AML3 cells [5]; OCI-AML3, Mubritinib 500 nM for 20 h vs DMSO (FIG. 6D)): reduces the levels; level of malate (OCI-AML3 cells [5]; OCI-AML3, Mubritinib 500 nM for 20 h vs DMSO (FIG. 6E)): reduces the levels; inhibition of ERBB2/HER2 [6]: potent inhibitor
